Assay results: patent US7973055B2, “Crystalline forms of a biphenyl compound” (Theravance, Inc., priority 2006, dated 2011)

Assays:
[1] = biological target: T1, hM2 receptor (CHO-K1 cells) (Homo sapiens, UniProt P08172); assay: Blockade of agonist-mediated [35S]GTPγS binding; type: biochemical; details: CHO-K1 cells expressing hM2; this or a similar assay; read-out: Ki for blockade of oxotremorine-stimulated [35S]GTPγS binding
T1 construct: expressed in transfected cells; host or cells: CHO-K1 cells
T1 sequence (P08172 1-466): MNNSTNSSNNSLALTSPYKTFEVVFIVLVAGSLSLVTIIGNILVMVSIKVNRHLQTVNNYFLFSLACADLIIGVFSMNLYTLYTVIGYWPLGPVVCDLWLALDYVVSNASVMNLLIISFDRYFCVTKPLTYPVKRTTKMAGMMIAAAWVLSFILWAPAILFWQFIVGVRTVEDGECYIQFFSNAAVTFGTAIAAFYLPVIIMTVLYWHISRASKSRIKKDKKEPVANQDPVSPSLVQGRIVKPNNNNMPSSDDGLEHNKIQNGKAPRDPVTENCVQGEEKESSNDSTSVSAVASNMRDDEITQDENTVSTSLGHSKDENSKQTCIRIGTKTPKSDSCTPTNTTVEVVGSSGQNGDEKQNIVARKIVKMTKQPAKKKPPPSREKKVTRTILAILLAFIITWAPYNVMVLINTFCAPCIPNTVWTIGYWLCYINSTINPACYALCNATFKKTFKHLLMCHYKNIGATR
Procedure: In a second functional assay, the functional potency of test compounds can be determined by measuring the ability of the compounds to block oxotremorine-stimulated [^35S]GTPγS binding in CHO-K1 cells expressing the hM2 receptor.
At the time of use, frozen membranes were thawed and then diluted in assay buffer with a final target tissue concentration of 5-10 μg protein per well. The membranes were briefly homogenized using a Polytron PT-2100 tissue disrupter and then added to the assay plates. The EC90 value (effective concentration for 90% maximal response) for stimulation of [^35S]GTPγS binding by the agonist oxotremorine was determined in each experiment.
To determine the ability of a test compound to inhibit oxotremorine-stimulated [^35S]GTPγS binding, the following was added to each well of 96 well plates: 25 μL of assay buffer with [^35S]GTPγS (0.4 nM), 25 μL of oxotremorine (EC90) and GDP (3 μM), 25 μL of diluted test compound and 25 μL CHO cell membranes expressing the hM2 receptor. […] Microscint-20 scintillation liquid (50 μL) was added to each well, and each plate was sealed and radioactivity counted on a topcounter (PerkinElmer). Data were analyzed by nonlinear regression analysis with the GraphPad Prism Software package (GraphPad Software, Inc., San Diego, Calif.) using the non-linear regression, one-site competition equation. […]

[2] = tested on: ACh-induced bronchoconstriction; assay: Duration of bronchoprotection in guinea pig model of acetylcholine-induced bronchoconstriction; type: in vivo; details: inhalation, 1.5 hours post-dose, expected
Procedure: Groups of six male guinea pigs (Duncan-Hartley (HsdPoc:DH) Harlan, Madison, Wis.) weighing between 250 and 350 g are individually identified by cage cards. Throughout the study, animals are allowed access to food and water ad libitum.
Test compounds are administered via inhalation over 10 minutes in a whole-body exposure dosing chamber (R&S Molds, San Carlos, Calif.). The dosing chambers are arranged so that an aerosol was simultaneously delivered to 6 individual chambers from a central manifold. Guinea pigs are exposed to an aerosol of a test compound or vehicle (WFI). […] This is measured gravimetrically by comparing pre-and post-nebulization weights of the filled nebulizer.
The bronchoprotective effects of test compounds administered via inhalation are evaluated using whole body plethysmography at 1.5, 24, 48 and 72 hours post-dose.
Forty-five minutes prior to the start of the pulmonary evaluation, each guinea pig is anesthetized with an intramuscular injection of ketamine (43.75 mg/kg), xylazine (3.50 mg/kg) and acepromazine (1.05 mg/kg). […] The depth of anesthesia is monitored and adjusted if the animal responds to pinching of its paw or if the respiration rate is greater than 100 breaths/minute. […]
Starting this program initiates the experimental protocol and data collection. […] By integrating this signal over time, a measurement of […] is calculated for each breath. […]

With `CN(CCN1CCC(OC(=O)Nc2ccccc2-c2ccccc2)CC1)C(=O)c1cccc(C(=O)NCCNCc2ccc(O)cc2)c1` [compound of formula I, biphenyl-2-ylcarbamic acid 1-[2-({3-[2-(4-hydroxybenzylamino)ethylcarbamoyl]benzoyl}methylamino)ethyl]piperidin-4-yl ester] the Ki [1] was < 10 nM and the “PD2(50) for ACh-induced bronchoconstriction” value [2] was “less than 200 μg/mL”.
